Assay results: ChEMBL document CHEMBL1125158, “A model for compounds active against human rhinovirus-14 based on X-ray crystallography data” (1990)
In brackets after ≈: the same amount, converted by molar mass. Activity calls are given as the source filed them. The calls are words filed in the database; no cut-off is given here.

Experiments:
[1] = system: rhinovirus B14; assay: In vitro minimum inhibitory concentration for the inhibition of human rhinovirus-14 replication.; format: functional
[2] = system: rhinovirus B14; assay: In vitro minimum inhibitory concentration for the inhibition of human rhinovirus-14 (HRV-14) replication by binding to viral capsid; NA= inactive at the 10 umol.; format: functional, organism-based
[3] = system: rhinovirus B14; assay: In vitro inhibitory activity against human rhinovirus-14 was determined; format: functional; conditions: Rhinovirus B

| MIC ([1]; Rhinovirus B) [µM] | Structure (SMILES) | other results |
| --- | --- | --- |
| 0.43 (≈ 0.141 µg/mL) | CCc1cc(CCCCCOc2ccc(C3=NCCO3)cc2)on1 | – |
| 3.92 (≈ 1.4 µg/mL) | Cc1cc(CCCCCCCCOc2ccc(C3=NCCO3)cc2)on1 | – |
| 0.16 (≈ 0.0596 µg/mL) | Cc1cc(CCCCCCCOc2ccc(C3=NC(CO)CO3)cc2)on1 (centres undefined) | – |
| 0.16 (≈ 0.0548 µg/mL) | CCCc1cc(CCCCCOc2ccc(C3=NCCO3)cc2)on1 | – |
| 0.41 (≈ 0.14 µg/mL) | Cc1cc(CCCCCCCOc2ccc(C3=NCCO3)cc2)on1 [DISOXARIL] | – |
| 14.3 (≈ 5.6 µg/mL) | Cc1cc(CCCCCCCCOc2ccc(C3=NCCO3)cc2Cl)on1 | – |
| 0.51 (≈ 0.16 µg/mL) | Cc1cc(CCCCCOc2ccc(C3=NCCO3)cc2)on1 | MIC [3]: 1.27 µM (≈ 0.399 µg/mL) |
| 0.7 (≈ 0.23 µg/mL) | Cc1cc(CCCCCOc2ccc(C3=NC(C)CO3)cc2)on1 (centres undefined) | – |
| 0.05 (≈ 0.0178 µg/mL) | Cc1cc(CCCCCCCOc2ccc(C3=NC(C)CO3)cc2)on1 (centres undefined) | – |
| 1.06 (≈ 0.399 µg/mL) | Cc1cc(CCCCCCCOc2ccc(C3=NCCO3)cc2Cl)on1 | – |
| 2.9 (≈ 0.952 µg/mL) | Cc1cc(CCCCCCOc2ccc(C3=NCCO3)cc2)on1 | – |
| 0.16 (≈ 0.0593 µg/mL) | Cc1cc(CCCCCCCOc2ccc(C3=NC(C)(C)CO3)cc2)on1 | – |
| 3.86 (≈ 1.4 µg/mL) | Cc1cc(CCCCCCOc2ccc(C3=NCCO3)cc2Cl)on1 | – |
| 2.41 (≈ 0.841 µg/mL) | Cc1cc(CCCCCOc2ccc(C3=NCCO3)cc2Cl)on1 | – |
| 0.56 (≈ 0.2 µg/mL) | CCCCc1cc(CCCCCOc2ccc(C3=NCCO3)cc2)on1 | – |
| 0.023 (≈ 0.00852 µg/mL) | CC[C@H]1COC(c2ccc(OCCCCCCCc3cc(C)no3)cc2)=N1 | – |

The next lines start with the compound.

| Structure (SMILES) | MIC ([1]; Rhinovirus B) [µM] | other results |
| --- | --- | --- |
| Cc1cc(CCCCCOc2c(Cl)cc(-c3cnco3)cc2Cl)on1 | – | MIC [2]: inactive |
| Cc1cc(CCCCCOc2c(Cl)cc(-c3ccoc3)cc2Cl)on1 | – | MIC [2]: inactive |
| Cc1cc(CCCCOc2ccc(C3=NCCO3)cc2)on1 | – | MIC [1]: inactive |
| Cc1cc(CCCCCOc2c(C)cc(-c3ccoc3)cc2C)on1 | – | MIC [2]: inactive |
| Cc1cc(CCCCCCCOc2ccc(C3=NC(C)CO3)cc2Cl)on1 (centres undefined) | 2.4 (≈ 0.938 µg/mL) | – |
| Cc1cc(CCCCCOc2ccc(-c3nc(C)c(C)s3)cc2)on1 | 0.14 (≈ 0.0499 µg/mL) | – |
| Cc1cc(CCCCCOc2c(Cl)cc(C3=NCCO3)cc2C(C)(C)C)on1 | – | MIC [2]: inactive |
| Cc1cc(CCCCCOc2c(C)cc(-c3ccco3)cc2C)on1 | – | MIC [2]: inactive |
| OCCOCOCc1cc(CCCCCCCOc2c(Cl)cc(C3=NCCO3)cc2Cl)on1 | 0.06 (≈ 0.0301 µg/mL) | – |
| CCc1cc(C2=NCCO2)cc(C)c1OCCCCCc1cc(C)no1 | – | MIC [2]: inactive |
| Cc1cc(CCCCOc2ccc(C3=NCCO3)cc2Cl)on1 | 9.2 (≈ 3.08 µg/mL) | – |
| Cc1cc(CCCCCOc2ccc(C3=NCCO3)cc2N(C)C)on1 | – | MIC [2]: inactive |
